How the values were obtained:
Details in all cases: *Measured by radioligand binding
human A1 receptor = human A1 receptor (Homo sapiens (Human), UniProt P30542); experiment: Radioligand binding assay, A1 ([3H]-DPCPX, CHO-K1 membranes)
Description: (§1) A filtration binding assay was performed for adenosine receptors A1, A2A, A2B and A3. Radioligand binding competition assay was done in duplicate in the wells of a 96-well plate (Master Block, Greiner, 786201) containing binding buffer, receptor membrane extracts, a fixed concentration of tracer, and test compound at increasing concentrations. In order to eliminate effect of buffer components, binding buffer was the same for all four receptors and contained: 50 mM Tris-HCl pH 7.4, 5 mM MgCl, 1 mM EDTA, 150 mM NaCl, 0.1% Na-azide, and 5 U/ml adenosine-deaminase. Nonspecific binding was minimized by co-incubation with 200-fold excess of cold competitor. In all radioligand binding experiments, the samples were incubated in a final volume of 0.1 ml of binding buffer for 60 minutes at 25° C. and then filtered over Unifilter plates (Perkin Elmer) pre-treated for 2 hours to limit tracer non-specific binding. Filters were washed five times with 0.5 ml of ice-cold washing buffer (50 mM Tris-HCl pH 7.4, 5 mM MgCl, 1 mM EDTA), and 50 μL of Microscint 20 (Perkin Elmer) were added to each filter. The plates were incubated 15 min at room temperature on an orbital shaker and then counted with a TopCount™ for 1 min/well.
For A1 receptor, the assay was performed with [3H]-DPCPX and membranes from CHO-Kl cells transfected with human A1 receptor (Euroscreen FAST-001B).

human A2B receptor = human A2B receptor (Homo sapiens (Human), UniProt P29275); experiment: Radioligand binding assay, A2B ([3H]-DPCPX, HEK293 membranes)
Sequence of human A2B receptor (P29275 whole entry): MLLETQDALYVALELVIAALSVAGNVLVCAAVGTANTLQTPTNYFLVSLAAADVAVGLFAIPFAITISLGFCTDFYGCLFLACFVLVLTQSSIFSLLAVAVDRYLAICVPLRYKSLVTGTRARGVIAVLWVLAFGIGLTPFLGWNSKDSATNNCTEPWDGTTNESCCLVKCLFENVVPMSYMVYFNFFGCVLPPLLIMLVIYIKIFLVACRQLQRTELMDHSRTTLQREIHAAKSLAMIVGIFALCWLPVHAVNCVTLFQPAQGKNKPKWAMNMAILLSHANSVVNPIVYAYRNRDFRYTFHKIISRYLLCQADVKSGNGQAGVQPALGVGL
Description: as §1
For A2B receptor, the assay was carried with [3H]-DPCPX and membranes prepared from HEK293 cells transfected with human A2B receptor (Euroscreen FAST-003B).

human A3 receptor = human A3 receptor (Homo sapiens (Human), UniProt P0DMS8); experiment: Radioligand binding assay, A3 ([125I]-MECA, CHO-K1 membranes)
Sequence of human A3 receptor (P0DMS8 whole entry): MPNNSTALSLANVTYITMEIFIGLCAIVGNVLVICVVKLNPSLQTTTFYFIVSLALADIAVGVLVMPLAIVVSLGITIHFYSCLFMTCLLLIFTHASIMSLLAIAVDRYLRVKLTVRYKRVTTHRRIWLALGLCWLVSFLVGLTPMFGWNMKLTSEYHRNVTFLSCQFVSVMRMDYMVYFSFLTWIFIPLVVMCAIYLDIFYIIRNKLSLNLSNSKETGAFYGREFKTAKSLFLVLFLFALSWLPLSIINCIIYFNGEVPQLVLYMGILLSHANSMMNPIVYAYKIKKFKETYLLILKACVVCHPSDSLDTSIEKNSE
Description: as §1
For A3 receptor, the assay was carried out with [125IJ-MECA and membranes from CHO-Kl cells transfected with human A3 receptor (Euroscreen FAST-004B).

human A2A receptor = human A2A receptor (Homo sapiens (Human), UniProt P29274); experiment: Radioligand binding assay, A2A ([3H]-NECA, HEK293 membranes)
Sequence of human A2A receptor (P29274 whole entry): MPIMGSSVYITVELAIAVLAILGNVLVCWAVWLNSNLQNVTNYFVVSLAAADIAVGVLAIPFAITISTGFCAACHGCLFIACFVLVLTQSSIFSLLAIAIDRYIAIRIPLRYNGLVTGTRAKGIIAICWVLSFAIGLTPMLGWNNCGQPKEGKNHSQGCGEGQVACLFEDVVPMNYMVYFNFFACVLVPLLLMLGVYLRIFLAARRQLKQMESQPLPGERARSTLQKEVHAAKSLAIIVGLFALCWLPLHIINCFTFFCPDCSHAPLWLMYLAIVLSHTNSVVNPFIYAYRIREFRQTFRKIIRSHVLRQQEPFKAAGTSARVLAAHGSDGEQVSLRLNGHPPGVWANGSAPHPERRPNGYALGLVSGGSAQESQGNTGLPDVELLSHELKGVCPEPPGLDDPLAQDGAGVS
Description: as §1
For A2A receptor, the assay was performed with [3H-NECA and membranes from HEK293 cells transfected with human A2A receptor (Euroscreen FAST-002B).

Sequence of human A1 receptor (P30542 whole entry): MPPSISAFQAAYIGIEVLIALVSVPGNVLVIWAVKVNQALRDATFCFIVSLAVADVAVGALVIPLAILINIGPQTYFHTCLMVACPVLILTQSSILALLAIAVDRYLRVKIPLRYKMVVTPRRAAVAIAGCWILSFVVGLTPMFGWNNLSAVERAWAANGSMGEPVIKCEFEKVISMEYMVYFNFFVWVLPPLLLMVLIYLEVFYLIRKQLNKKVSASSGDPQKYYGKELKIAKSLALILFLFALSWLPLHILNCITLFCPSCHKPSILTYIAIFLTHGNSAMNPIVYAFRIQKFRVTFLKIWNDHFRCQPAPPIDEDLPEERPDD

EC50 (human A1 receptor): < 5 nM
EC50 (human A2B receptor): 2.2 nM
EC50 (human A3 receptor): > 10000 nM
EC50 (human A2A receptor): > 10000 nM
Compound: Fc1ccccc1-c1nc(Nc2n[nH]c(C3CCC3)n2)sc1-c1ccncc1F [Compound 1, 5-Cyclobutyl-N-[4-(2-fluorophenyl)-5-(3-fluoropyridin-4-yl)-1,3-thiazol-2-yl]-1H-1,2,4-triazol-3-amine]

Source: patent US20250101013A1, “FUNCTIONALIZED AMINOTHIAZOLES” (LEADXPRO AG, priority 2022, published 2025)
